Laboratory results: publication PMC3242765, “Inhibitors of Alphavirus Entry and Replication Identified with a Stable Chikungunya Replicon Cell Line and Virus-Based Assays” (PLoS ONE, 2011)
“And” between values parts separate entries of the source, which are not always exact repeats. Equal entries are not always repeated. Structures can show the parent of a compound that is named as a salt. Where two headings read alike, the source gives them in different places.

Assays:
SFV-Rluc [1] = details: for IC50: read-out: SFV IC50
SFV-Rluc [2] = experiment: microbe, parasite or virus in culture; details: Semliki Forest virus, BHK, 14 h, read-out: SFV IC50
BHK cells = experiment: Cell viability ATP assay, BHK cells; type: cell-based, hamster; details: read-out: Cell viability IC50
CHIKV replicon = experiment: microbe, parasite or virus in culture; type: cell-based, Chikungunya virus (CHIKV)
SFV [3] = experiment: CPE reduction assay, SFV (WST-1); type: cell-based, Semliki Forest virus (SFV); details: read-out: SFV IC50 (CPE reduction)
SINV = experiment: CPE reduction assay, SINV (WST-1); type: cell-based, Sindbis virus (SINV); details: read-out: SINV IC50 (CPE reduction)
SFV [4] = experiment: Viral yield analysis using a plaque assay; type: cell-based, Semliki Forest virus (SFV); details: BHK cells, MOI 0.01, 50 µM compound, 16 h; untreated control 1.4×10^9 PFU/ml
CHIKV-Rluc = experiment: microbe, parasite or virus in culture; type: cell-based, Chikungunya virus (CHIKV); details: read-out: CHIKV-Rluc IC50
SFVts9-Rluc = type: cell-based, Semliki Forest virus (SFV)
[5] = Mesocricetus auratus, BHK, 48 h
[6] = ATP assay, 48 h exposure of BHK cells
[7] = Semliki Forest virus, BHK, 22 h

| Compound | SFV replication % left (surviving fraction, remaining percentage of SFV replication) (SFV-Rluc [1]) | SI (selectivity index) (SFV-Rluc [1]) | IC50 (SFV-Rluc [2]) | IC50 (BHK cells; [5]) | CHIKV replicon % left (CHIKV replicon) | also measured |
| --- | --- | --- | --- | --- | --- | --- |
| CC(=O)c1ccc(O)cc1 [4-Hydroxyacetophenone] | 29.4% | 7.8 | 21.1 µM | 164 µM | 94.5% | – |
| CCN(CC)c1ccc2cc(C(=O)c3cccs3)c(=O)oc2c1 [7-Diethylamino-3-thenoylcoumarin] | 15.6% | – | – | – | 36.9% | IC50 (SFV-Rluc [1]): 5.1 µM; IC50 (BHK cells; [6]): 39.1 µM |
| C#C[C@]1(O)CC[C@H]2[C@@H]3CCc4cc(O)ccc4[C@H]3CC[C@@]21C [17-Ethinylestradiol] | – | >21.1 | 9.5 µM | > 200 µM | – | IC50 (SFV [3]; [7]): 63 µM; IC50 (SINV; Sindbis virus, BHK, 24 h): 56.8 µM; SFV yield (SFV [4]): 9.0×10^8 PFU/ml |
| O=c1cc(-c2ccccc2)oc2c1ccc1ccccc12 [Alphanaphtoflavone] | – | – | – | – | – | IC50 (SFV-Rluc [1]): 24.1 µM; IC50 (BHK cells; [6]): > 200 µM |
| COc1c2ccoc2cc2oc(=O)ccc12 [Bergapten] | – | >24.6 | 8.1 µM | > 200 µM | – | IC50 (SFV [3]; [7]): 9.2 µM; IC50 (SINV; Sindbis virus, BHK, 24 h): 16.2 µM; SFV yield (SFV [4]): 1.2×10^8 PFU/ml |
| CN(C)CCCN1c2ccccc2Sc2ccc(Cl)cc21 [Chlorpromazine] | – | – | 15.7 µM | 67.3 µM | – | IC50 (CHIKV-Rluc; Chikungunya virus, BHK, 16 h): 39.4 µM; Effect on SFV entry (Rluc activity) (SFVts9-Rluc): decreased the Rluc activity |
| CCN(CC)c1ccc2cc(-c3nc4ccccc4n3C)c(=O)oc2c1 [Coumarin 30] | 12.3% | – | – | – | 44.1% | IC50 (SFV-Rluc [1]): 0.4 µM; IC50 (SFV [3]; BHK cells, MOI 0.01, 22 h post-infection, WST-1, 200 µM to 0.1 µM): 5.5 µM; IC50 (BHK cells; [6]): 92.4 µM; IC50 (SINV; BHK cells, MOI 0.01, 24 h post-infection, WST-1, 200 µM to 0.1 µM): 11.8 µM; SFV yield (SFV [4]): 5.0×10^8 PFU/ml; IC50 (CHIKV-Rluc): 6.4 µM |
| CN(C)CCC=C1c2ccccc2COc2ccccc21 [Doxepin] | – | – | – | – | – | SFV yield (SFV [4]): 3.6×10^8 PFU/ml |
| CC1=CC(=O)c2ccccc2C1=O [Menadione] | – | 2.8 | 7.8 µM | 21.9 µM | – | – |
| CN1CCC(CN2c3ccccc3Sc3ccccc32)C1 (stereo not shown) [Methdilazine] | 22.5% | 5.6 | 11.3 µM | 63.8 µM | 19.1% | IC50 (CHIKV-Rluc; Chikungunya virus, BHK, 16 h): 84.5 µM; Effect on SFV entry (Rluc activity) (SFVts9-Rluc): decreased the Rluc activity |
| N/C(CC(O)COc1cccc2ccccc12)=N/O (stereo not shown) [Nadoxolol] | 20.8% | >12.2 | 16.4 µM | > 200 µM | 69.2% | IC50 (SFV [3]; [7]): 15.2 µM; IC50 (SINV; Sindbis virus, BHK, 24 h): 8.2 µM; SFV yield (SFV [4]): 9.2×10^7 PFU/ml |
| OCCN1CCN(CCCN2c3ccccc3C=Cc3ccccc32)CC1 [Opipramol] | 27.5% | >10.2 | 19.7 µM | > 200 µM | 101.5% | IC50 (SFV [3]; [7]): 25 µM; IC50 (SINV; Sindbis virus, BHK, 24 h): 31 µM; SFV yield (SFV [4]): 2.5×10^8 PFU/ml |
| OCCN1CCN(CCCN2c3ccccc3Sc3ccc(Cl)cc32)CC1 [Perphenazine] | 10.6% | 6.2 | 25.1 µM | 155 µM | 88.1% | IC50 (CHIKV-Rluc; Chikungunya virus, BHK, 16 h): 48.1 µM; Effect on SFV entry (Rluc activity) (SFVts9-Rluc): decreased the Rluc activity |
| CCCOC(=O)c1cc(O)c(O)c(O)c1 [Propyl gallate] | – | 5.8 | 17.9 µM | 103 µM | – | – |
| O=C(O)c1ccc(O)c(O)c1 [Protocatechuic acid] | 21.1% | >25.0 | 8 µM | > 200 µM | 105.4% | IC50 (SFV [3]; [7]): > 200 µM; IC50 (SINV; Sindbis virus, BHK, 24 h): > 200 µM; SFV yield (SFV [4]): 2.4×10^9 PFU/ml |
| Oc1cccc(O)c1O [Pyrogallol] | 22.7% | >10.7 | 18.7 µM | > 200 µM | 89.2% | IC50 (SFV [3]; [7]): > 200 µM; IC50 (SINV; Sindbis virus, BHK, 24 h): > 200 µM; SFV yield (SFV [4]): 1.1×10^9 PFU/ml |
| C[C@@H]1O[C@@H](Oc2c(-c3ccc(O)c(O)c3)oc3cc(O)cc(O)c3c2=O)[C@H](O)[C@H](O)[C@H]1O [Quercitrin] | – | >8.4 | 23.7 µM | > 200 µM | – | – |
| CCSc1ccc2c(c1)N(CCCN1CCN(C)CC1)c1ccccc1S2 [Thiethylperazine] | 26.5% | 5.5 | 15 µM | 83.1 µM | 101.1% | IC50 (CHIKV-Rluc; Chikungunya virus, BHK, 16 h): 63.8 µM; Effect on SFV entry (Rluc activity) (SFVts9-Rluc): decreased the Rluc activity |
| CSc1ccc2c(c1)N(CCC1CCCCN1C)c1ccccc1S2 (stereo not shown) [Thioridazine, reference compound] | 11.6% | – | – | – | 95.4% | SFV yield (SFV [4]): 6.8×10^8 PFU/ml; Effect on SFV entry (Rluc activity) (SFVts9-Rluc): decreased the Rluc activity |
| CC(C)(C)NC[C@H](O)COc1nsnc1N1CCOCC1 [Timolol maleate] | 129.1% | – | – | – | 100.6% | – |
| CCS(=O)(=O)CCn1c([N+](=O)[O-])cnc1C [Tinidazole] | 104.1% | – | – | – | 100.5% | – |

| Compound | SFV replication % left (surviving fraction, remaining percentage of SFV replication) (SFV-Rluc [1]) | SI (selectivity index) (SFV-Rluc [1]) | IC50 (SFV-Rluc [2]) | IC50 (BHK cells; [5]) | CHIKV replicon % left (CHIKV replicon) | also measured |
| --- | --- | --- | --- | --- | --- | --- |
| Cl.c1ccc(CC2=NCCN2)cc1 [Tolazoline, hydrochloride] | 76.0% | – | – | – | 102.1% | – |
| CCCCNC(=O)NS(=O)(=O)c1ccc(C)cc1 [Tolbutamide] | 80.2% | – | – | – | 100.9% | – |
| Cc1c(Cl)cccc1Nc1ccccc1C(=O)O [Tolfenamic acid] | 80.1% | – | – | – | 108.2% | – |
| N[C@@H]1C[C@H]1c1ccccc1.N[C@H]1C[C@@H]1c1ccccc1.O=S(=O)(O)O [Tranylcypromine sulfate] | 94.8% | – | – | – | 94.4% | – |
| Nc1nc(N)c2nc(-c3ccccc3)c(N)nc2n1 [Triamterene] | 93.0% | – | – | – | 71.2% | – |
| Cc1nnc2n1-c1ccc(Cl)cc1C(c1ccccc1Cl)=NC2 [Triazolam] | 76.5% | – | – | – | 40.1% | – |
| CC(CN(C)C)CN1c2ccccc2Sc2ccccc21.CC(CN(C)C)CN1c2ccccc2Sc2ccccc21.O=C(O)C(O)C(O)C(=O)O (stereo not shown) [Trimeprazine tartrate] | 120.4% | – | – | – | 100.5% | – |
| O=c1ccc2ccc(O)cc2o1 [Umbelliferone] | 93.1% and 78.4% | – | – | – | 106.5% and 100.7% | – |
| COc1cc(C(=O)O)ccc1O [Vanillic acid] | 53.4% | – | – | – | 44.3% | – |
| COc1cc(C=O)ccc1O [Vanillin] | 47.9% | – | – | – | 71.7% | – |
| COc1c2occc2cc2ccc(=O)oc12 [Xanthotoxin] | 86.7% | – | – | – | 95.4% | – |
| Cc1cc(C(C)(C)C)cc(C)c1CC1=NCCN1 [Xylometazoline] | 94.2% | – | – | – | 78.2% | – |
| CCCOC(=O)c1cc(O)c(O)c(O)c1 [n-Propyl gallate] | 33.6% | – | – | – | 39.4% | – |
| O=C(O)/C=C/c1ccccc1O [o-Coumaric acid] | 77.6% | – | – | – | 98.6% | – |
| Nc1ccc(C(=O)O)cc1 [p-Aminobenzoic acid] | 56.5% | – | – | – | 105.4% | – |
| CCCCNc1ccc(C(=O)OCCN(C)C)cc1 [p-Butylaminobenzoyldimethylaminoethanol] | 45.4% | – | – | – | 77.1% | – |
| CN[C@H](C)[C@@H](O)c1ccc(O)cc1 [p-Hydroxyephedrine] | 94.4% | – | – | – | 100.6% | – |
| (-)-Epicatechin gallate | 94.8% | – | – | – | 100.5% | – |
| Benzalkonium chloride | 0.0294% | – | – | – | -0.5% | – |
| Saccharin sodium | 105.0% | – | – | – | 81.5% | – |
| Tannic acid | 41.8% | – | – | – | 82.0% | – |
